We go through three compounds from PMC10714399, “Open Source Antibiotics: Simple Diarylimidazoles Are Potent against Methicillin-Resistant Staphylococcus aureus” (ACS Infectious Diseases, 2023).

A short description of series [1]: Human liver microsome intrinsic clearance. It counts as in vitro ADME. The conditions noted are these: human liver microsomes, NEU.
A short description of series [2]: In vitro metabolic stability, human liver microsomes (Monash). Type of series: in vitro ADME. Put shortly:
(§1)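 Compound at 1 μM with human or rat liver microsomes (0.4 mg/mL protein) at 37 °C, reaction started with NADPH-regenerating system and sampled over 60 min. No-NADPH controls included. CLint derived from substrate depletion, without correction for microsomal or blood binding.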
(In general: Liver microsomes are a subcellular fraction often used to study metabolism.)

A short description of series [3]: Kinetic solubility estimation using nephelometry (Monash). It counts as physicochemical. The following applies: for solubility kinetic at 30 min: kinetic from dmso stock. The procedure, abridged: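 Compound in DMSO was spiked into pH 6.5 phosphate buffer or 0.01 M HCl (approx pH 2.0), 1% final DMSO. After 30 minutes, nephelometry gave a solubility range.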
Series [4] relates to Enterococcus faecalis ATCC 51299 (vanA-positive; vancomycin-resistant). The series can be described thus: In vitro antibacterial activity, MIC (UCL), VRE. It counts as cell-based. The procedure, abridged:
(§2)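 MIC determined over 32–0.03 μg/mL in 2-fold steps, with at most 2% DMSO, in isosensitest broth. Organisms were suspended in PBS to A600 0.1 (about 1 × 10^8 CFU/mL), diluted 1:100 and inoculated; vancomycin served as QC compound.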

Series [5] has as its system S. aureus ATCC 25923 (methicillin-susceptible). Put plainly: In vitro antibacterial activity, MIC (UCL), MSSA. It counts as cell-based, Staphylococcus aureus. The conditions noted are these: Staphylococcus aureus. The procedure, abridged:
as §2

The nature of series [6]: In vitro metabolic stability, rat liver microsomes (Monash). It counts as in vitro ADME. The procedure, abridged:
as §1

The test system of series [7] is Staphylococcus aureus NCTC 13373 (mecA-positive; methicillin-resistant). The series can be described thus: In vitro antibacterial activity, MIC (UCL School of Pharmacy assay), MRSA. It counts as cell-based. The following applies: for MIC: Staphylococcus aureus. The procedure, abridged: as §2
A further series is described as follows: Aqueous solubility. Type of series: physicochemical. The following applies: for solubility: thermodynamic from solid.
Series [8] is described as follows: Human plasma protein binding (PPB). The following applies: human, plasma. Type of series: in vitro ADME.
[9] abbreviates: 0.01 M HCl, simulated gastric fluid, pH 2.0, read-out: Sol (pH 2.0) (Monash).
Setting [10] is: pH 6.5 phosphate buffer, pH 6.5, aqueous buffer, read-out: Sol (pH 6.5) (Monash).
Where [11] appears, read: human plasma, NEU, read-out: Human PPB (NEU) (converted).
Setting [12] is: NADPH, read-out: CLint, in vitro.

Values after ≈ are worked out from the molar mass of the structure shown. Like-named read-outs stand apart in the source and are kept apart here.

By MIC is commonly meant the lowest concentration found to suppress growth. For `c1ccc(-c2nc3n(c2-c2ccc4sccc4c2)CCC3)nc1` [OSA_000822], the “HLM CLint (NEU)” value in [1] stood at 61.5 uL/min/mg protein. In series [2] (Monash), the “HLM Clint (Monash)” value is 72 µL/min/mg. Further, the “HLM t1/2 (Monash)” value in series [2] (Monash) stood at 24 min. For the same compound, the solubility kinetic at 30 min is 50 to 100 µg/mL (≈ 158 to 315 µM) in [3] (setting [9]) and 12.5 to 25 µg/mL (≈ 39.4 to 78.8 µM) in series [3] (setting [10]). In addition, the MIC in series [4] (read-out: VRE MIC (UCL)) is 8 µg/mL (≈ 25.2 µM); in series [5] (read-out: MSSA MIC (UCL)), 4 µg/mL (≈ 12.6 µM); in series [7] (UCL, read-out: MRSA MIC (UCL)) it was 4 µg/mL (≈ 12.6 µM). Further, the “RLM Clint (Monash)” value in series [6] (Monash) is 503 µL/min/mg. For the same compound, the “RLM t1/2 (Monash)” value in series [6] (Monash) was determined as 3 min. Moreover, the “Aqueous Solubility (NEU)” value in the series “Aqueous solubility” (NEU) came out at 3 µM. The fraction unbound in series [8] (setting [11]) was 0.023.

As a reminder, the solubility is the dissolved amount per volume that the medium holds. Take `c1ccc(-c2nc3n(c2-c2ccc4occc4c2)CCC3)nc1` [compound 821]: the microsomal CLint in series [1] (read-out: HLM CLint (NEU)) was determined as 63.5 µL/min/mg. The microsomal CLint at 1 µM in [2] (Monash, read-out: HLM Clint (Monash)) turned out to be 51 µL/min/mg; in [6] (Monash, read-out: RLM Clint (Monash)), 72 µL/min/mg. For the same compound, the half-life at 1 µM in series [2] (Monash, read-out: HLM t1/2 (Monash)) was found to be 34 min; in series [6] (Monash, read-out: RLM t1/2 (Monash)), 24 min. The figures for the solubility kinetic at 30 min in series [3] (setting [9]) and in series [3] (setting [10]) were > 100 µg/mL and 25 to 50 µg/mL (≈ 83 to 166 µM), respectively. The MIC was 2 µg/mL (≈ 6.64 µM) in series [4] (read-out: VRE MIC); 2 µg/mL (≈ 6.64 µM) in series [5] (read-out: MSSA MIC (UCL)); 4 µg/mL (≈ 13.3 µM) in series [7] (16 h, read-out: MRSA MIC); 2 µg/mL (≈ 6.64 µM) in series [7] (UCL, read-out: MRSA MIC (UCL)); 2 µg/mL (≈ 6.64 µM) in series [7] (read-out: MRSA MIC). Besides, in the series “Aqueous solubility” (NEU, read-out: Aqueous Solubility (NEU)), the solubility is 117 µM (≈ 35.3 µg/mL). For the same compound, the fraction unbound in [8] (setting [11]) was 0.028.

For `c1ccc(-c2nc3n(c2-c2ccc4sccc4c2)CCC3)nc1` [compound 822], the microsomal CLint at 1 µM was found to be 72 µL/min/mg in [2] (setting [12]) and 503 µL/min/mg in series [6] (setting [12]). The half-life at 1 µM was 24 min in series [2] (NADPH, read-out: T1/2) and 3 min in series [6] (NADPH, read-out: T1/2). Besides, in [3] (0.01 M HCl, approx pH 2.0), the “Sol 2.0” value is 50 to 100 µg/mL. Besides, the “Sol 6.5” value in [3] (pH 6.5 phosphate buffer) is 12.5 to 25 µg/mL. Further, the MIC in [4] (read-out: VRE MIC) came out at 8 µg/mL (≈ 25.2 µM); in series [5] (read-out: MSSA MIC) it was 4 µg/mL (≈ 12.6 µM); in series [7] (16 h, read-out: MRSA MIC), 2 µg/mL (≈ 6.3 µM); in series [7] (read-out: MRSA MIC), 2 µg/mL (≈ 6.3 µM). Further, in [7], the “MRSA MIC” value came to 4 µg/mL. For the same compound, the “activity against MRSA, in words” value in series [7] was “MRSA-active”. In addition, the solubility in the series “Aqueous solubility” (read-out: Aqueous Solubility) was 3 µM (≈ 0.952 µg/mL). The fraction unbound in series [8] (read-out: Human PPB (converted)) is 0.023.
